Measured values published in patent US8637496B2, “Compounds having a monogalactosyldiacylglycerol synthase inhibitory activity as herbicide or algaecide, herbicide and algaecide compositions” (Commissariat a l'Energie Atomique, priority 2007, dated 2014).
Counter-ions that a name gives are not always drawn.

target: T1, MGDG synthase in isolated spinach chloroplast envelope membranes (Spinacia oleracea, UniProt Q9SM44); test: MGDG synthase activity in envelope membrane fractions isolated from spinach chloroplasts; format: biochemical; details: not given
T1 construct: envelope membranes purified from the lysate by sucrose centrifugation gradient; from tissue; host or cells: envelope membranes of chloroplasts from spinach leaves
T1 sequence (Q9SM44 99-522): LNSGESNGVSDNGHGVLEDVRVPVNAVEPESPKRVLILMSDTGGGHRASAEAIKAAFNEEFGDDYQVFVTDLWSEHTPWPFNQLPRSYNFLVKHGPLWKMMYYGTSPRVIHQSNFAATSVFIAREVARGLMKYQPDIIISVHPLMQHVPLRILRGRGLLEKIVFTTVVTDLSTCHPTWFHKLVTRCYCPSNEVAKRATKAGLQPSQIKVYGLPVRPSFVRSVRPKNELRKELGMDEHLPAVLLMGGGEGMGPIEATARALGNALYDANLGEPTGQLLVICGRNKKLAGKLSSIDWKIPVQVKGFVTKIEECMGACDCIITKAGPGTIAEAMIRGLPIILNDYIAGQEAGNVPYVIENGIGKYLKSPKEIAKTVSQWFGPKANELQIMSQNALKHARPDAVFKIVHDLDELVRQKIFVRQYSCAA
Excerpt: All the operations have been carried out as described in the article by Maréchal, E. et al., J. Biol. Chem., 1995, 270, 5714-5722. Crude chloroplasts were obtained from 3-4 kg of spinach leaves and purified by isopycnic centrifugation using Percoll gradients. Purified intact chloroplasts have then been lysed in hypotonic medium and envelope membranes purified from the lysate by sucrose centrifugation gradient as described in the article by Douce, R. and Joyard, J., (1982) in Methods in Chloroplast Molecular Biology (Edelman, M., Hallick R and Chua N H eds), pp 239-256, Elsevier Science Publishers B.V. Amsterdam.
MGDG synthase activity was assayed as described in the article by Maréchal et al. (1995).

| Structure (SMILES) | IC50 |
| --- | --- |
| C[C@@H](COC(=O)N1CCC(n2c(=O)[nH]c3ccccc32)CC1)N(Cc1ccccc1)Cc1cc2ccccc2c2ccccc12 [Compound 61, (S)-2-(benzyl(phenanthren-9-ylmethyl)amino)propyl 4-(2-oxo-2,3-dihydro-1H-benzo[d]imidazol-1-yl)piperidine-1-carboxylate hydrochloride] | 25 µM |

same assay, conditions: Table 1, obtained in the same manner as FIG. 4; read-out: Inhibitory effect on MGDG synthesis in isolated spinach chloroplast envelope membranes

| Structure (SMILES) | IC50 |
| --- | --- |
| Cn1c(=O)n(C2CCN(C(=O)OC[C@H](Cc3ccccc3)N(Cc3ccccc3)Cc3ccccc3)CC2)c2ccccc21 [Compound 22, (S)-2-(dibenzylamino)-3-phenylpropyl 4-(1,2-dihydro-1-methyl-2-oxobenzo[d]imidazol-3-yl)piperidine-1-carboxylate] | 75 µM |
| O=C(OCCCN(Cc1ccccc1)Cc1ccc([N+](=O)[O-])cc1)N1CCC(n2c(=O)[nH]c3ccccc32)CC1 [Compound 38, 3-(benzyl(4-nitrobenzyl)amino)propyl 4-(2-oxo-2,3-dihydro-1H-benzo[d]imidazol-1-yl)piperidine-1-carboxylate hydrochloride] | 15 µM |
| COc1ccc(CN(Cc2ccccc2)[C@@H](C)COC(=O)N2CCC(n3c(=O)[nH]c4ccccc43)CC2)cc1 [Compound 39, (S)-2-(benzyl(4-methoxybenzyl)amino)propyl 4-(2-oxo-2,3-dihydro-1H-benzo[d]imidazol-1-yl)piperidine-1-carboxylate hydrochloride] | 60 µM |
| CC(C)(COC(=O)N1CCC(n2c(=O)[nH]c3ccccc32)CC1)N(Cc1ccccc1)Cc1ccccc1 [Compound 33, 2-(dibenzylamino)-2-methylpropyl 4-(1,2-dihydro-2-oxobenzo[d]imidazol-3-yl)piperidine-1-carboxylate] | 50 µM |
| O=C(OCCN1C(=O)c2ccccc2C1=O)N1CCC(n2c(=O)[nH]c3ccccc32)CC1 [Compound 15, 2-(1,3-dioxoisoindolin-2-yl)ethyl 4-(1,2-dihydro-2-oxobenzo[d]imidazol-3-yl)piperidine-1-carboxylate] | 45 µM |
| O=c1[nH]c2ccccc2n1C1CCN(C(=S)OCCN(Cc2ccccc2)Cc2ccccc2)CC1 [Compound 19, O-2-(dibenzylamino)ethyl 4-(1,2-dihydro-2-oxobenzo[d]imidazol-3-yl)piperidine-1-carbothioate] | 20 µM |
| CC(C)C[C@@H](COC(=O)N1CCC(n2c(=O)[nH]c3ccccc32)CC1)N(Cc1ccccc1)Cc1ccccc1 [Compound 30, (S)-2-(dibenzylamino)-4-methylpentyl 4-(2-oxo-2,3-dihydro-1H-benzo[d]imidazol-1-yl)piperidine-1-carboxylate] | 12 µM |
| C[C@@H](COC(=O)N1CCC(n2c(=S)[nH]c3ccccc32)CC1)N(Cc1ccccc1)Cc1ccccc1 [Compound 25, (S)-2-(dibenzylamino)propyl 4-(1,2-dihydro-2-thioxobenzo[d]imidazol-3-yl)piperidine-1-carboxylate] | 100 to 500 µM |
| CC(C)(C)OC(=O)N(Cc1ccccc1)[C@H](COC(=O)N1CCC(n2c(=O)[nH]c3ccccc32)CC1)Cc1ccccc1 [Compound 86, (S)-2-(benzyl(tert-butoxycarbonyl)amino)-3-phenylpropyl 4-(2-oxo-2,3-dihydro-1H-benzo[d]imidazol-1-yl)piperidine-1-carboxylate] | 5 µM |
| C[C@@H](COC(=O)N1CCC(n2c(=O)[nH]c3ccccc32)C1)N(Cc1ccccc1)Cc1ccccc1 (stereo partly drawn) [Compound 6, (S)-2-(dibenzylamino)propyl 3-(1,2-dihydro-2-oxobenzo[d]imidazol-3-yl)pyrrolidine-1-carboxylate] | 50 µM |
| O=C(OCC(c1ccccc1)c1ccccc1)N1CCC(n2c(=O)[nH]c3ccccc32)CC1 [Compound 18, 2,2-diphenylethyl 4-(1,2-dihydro-2-oxobenzo[d]imidazol-3-yl)piperidine-1-carboxylate] | 50 µM |
| CC(C)[C@@H](COC(=O)N1CCC(n2c(=O)[nH]c3ccccc32)CC1)N(Cc1ccccc1)Cc1ccccc1 [Compound 29, (S)-2-(dibenzylamino)-3-methylbutyl 4-(1,2-dihydro-2-oxobenzo[d]imidazol-3-yl)piperidine-1-carboxylate] | 8 µM |

Now from value to compound:

| IC50 | Structure (SMILES) |
| --- | --- |
| 5 µM | O=C(OCCN(Cc1ccccc1)Cc1ccc(F)cc1)N1CCC(n2c(=O)[nH]c3ccccc32)CC1 [Compound 45, 2-(benzyl(4-fluorobenzyl)amino)ethyl 4-(2-oxo-2,3-dihydro-1H-benzo[d]imidazol-1-yl)piperidine-1-carboxylate hydrochloride] |
| 8 µM | O=C(OCCN(Cc1ccccc1)Cc1cccc(Oc2ccccc2)c1)N1CCC(n2c(=O)[nH]c3ccccc32)CC1 [Compound 49, 2-(benzyl(3-phenoxybenzyl)amino)ethyl 4-(2-oxo-2,3-dihydro-1H-benzo[d]imidazol-1-yl)piperidine-1-carboxylate hydrochloride] |
| 60 µM | C[C@@H](COC(=O)N1CCC(n2c(=O)[nH]c3ccccc32)CC1)N(CCCc1ccccc1)Cc1ccccc1 [Compound 52, (S)-2-(benzyl(3-phenylpropyl)amino)propyl 4-(2-oxo-2,3-dihydro-1H-benzo[d]imidazol-1-yl)piperidine-1-carboxylate hydrochloride] |
| 15 µM | O=C(OCCN(Cc1ccccc1)Cc1ccc(Br)cc1)N1CCC(n2c(=O)[nH]c3ccccc32)CC1 [Compound 40, 2-(benzyl(4-bromobenzyl)amino)ethyl 4-(2-oxo-2,3-dihydro-1H-benzo[d]imidazol-1-yl)piperidine-1-carboxylate hydrochloride] |
| 30 µM | C[C@@H](COC(=O)N1CCC(n2c(=O)[nH]c3ccccc32)CC1)N(Cc1ccccc1)Cc1cccs1 [Compound 63, (S)-2-(benzyl(thiophen-2-ylmethyl)amino)propyl 4-(2-oxo-2,3-dihydro-1H-benzo[d]imidazol-1-yl)piperidine-1-carboxylate hydrochloride] |
| 6 µM | O=C(OC[C@@H](Cc1ccccc1)N(Cc1ccccc1)Cc1ccccc1)N1CCC(n2c(=O)[nH]c3ccccc32)CC1 [Compound 43, (R)-2-(dibenzylamino)-3-phenylpropyl 4-(1,2-dihydro-2-oxobenzo[d]imidazol-3-yl)piperidine-1-carboxylate] |
| 15 µM | C[C@@H](COC(=O)N1CCC(n2c(=O)[nH]c3ccccc32)CC1)N(Cc1ccccc1)Cc1cccc(Cl)c1 [Compound 56, (S)-2-(benzyl(3-chlorobenzyl)amino)propyl 4-(2-oxo-2,3-dihydro-1H-benzo[d]imidazol-1-yl)piperidine-1-carboxylate hydrochloride] |
| 25 µM | C[C@@H](COC(=O)N1CCC(n2c(=O)[nH]c3ccccc32)CC1)N(Cc1ccccc1)Cc1ccco1 [Compound 79, (S)-2-(benzyl(furan-2-ylmethyl)amino)propyl 4-(2-oxo-2,3-dihydro-1H-benzo[d]imidazol-1-yl)piperidine-1-carboxylate] |
| 8 µM | O=C(OCCN(Cc1ccccc1)Cc1c(F)cccc1F)N1CCC(n2c(=O)[nH]c3ccccc32)CC1 [Compound 78, 2-(benzyl(2,6-difluorobenzyl)amino)ethyl 4-(2-oxo-2,3-dihydro-1H-benzo[d]imidazol-1-yl)piperidine-1-carboxylate] |
| 15 µM | COc1cccc(CN(CCOC(=O)N2CCC(n3c(=O)[nH]c4ccccc43)CC2)Cc2ccccc2)c1 [Compound 48, 2-(benzyl(3-methoxybenzyl)amino)ethyl 4-(2-oxo-2,3-dihydro-1H-benzo[d]imidazol-1-yl)piperidine-1-carboxylate hydrochloride] |
| 15 µM | COc1ccc(CN(CCOC(=O)N2CCC(n3c(=O)[nH]c4ccccc43)CC2)Cc2ccccc2)cc1 [Compound 47, 2-(benzyl(4-methoxybenzyl)amino)ethyl 4-(2-oxo-2,3-dihydro-1H-benzo[d]imidazol-1-yl)piperidine-1-carboxylate hydrochloride] |
| 40 µM | C[C@@H](COC(=O)N1CCC(n2c(=O)[nH]c3ccccc32)CC1)N(Cc1ccccc1)Cc1ccc(F)cc1 [Compound 51, (S)-2-(benzyl(4-fluorobenzyl)amino)propyl 4-(2-oxo-2,3-dihydro-1H-benzo[d]imidazol-1-yl)piperidine-1-carboxylate hydrochloride] |
| 20 µM | O=C(OCCN(Cc1ccccc1)Cc1ccccc1OCc1ccccc1)N1CCC(n2c(=O)[nH]c3ccccc32)CC1 [Compound 76, 2-(benzyl(2-(benzyloxy)benzyl)amino)ethyl 4-(2-oxo-2,3-dihydro-1H-benzo[d]imidazol-1-yl)piperidine-1-carboxylate] |
| 25 µM | COc1cccc(CN(Cc2ccccc2)[C@@H](C)COC(=O)N2CCC(n3c(=O)[nH]c4ccccc43)CC2)c1 [Compound 54, (S)-2-(benzyl(3-methoxybenzyl)amino)propyl 4-(2-oxo-2,3-dihydro-1H-benzo[d]imidazol-1-yl)piperidine-1-carboxylate hydrochloride] |
